Like-named read-outs stand apart in the source and are kept apart here.
Assays:
[1] = tested on: T1, recombinant human PDE4; test: PDE4 inhibition, recombinant human PDE4, [32P]cAMP charcoal separation assay; format: biochemical
T1 construct: PDE4 IC50 (nM); other: recombinant human PDE4
Description: The compounds of structural formula (II) were tested for an ability to inhibit PDE4. The ability of a compound to inhibit PDE4 activity is related to the IC50 value for the compound, i.e., the concentration of inhibitor required for 50% inhibition of enzyme activity. The IC50 value for compounds of structural formula (II) were determined using recombinant human PDE4.
The production of recombinant human PDEs and the IC50 determinations can be accomplished by well-known methods in the art. Exemplary methods are described as follows:
Recombinant production of human PDE1B, PDE2, PDE4A, PDE4B, PDE4C, PDE4D, PDE5, and PDE7 was carried out similarly to that described in Example 7 of U.S. Pat. No. 5,702,936, incorporated herein by reference, except that the yeast transformation vector employed, which is derived from the basic ADH2 plasmid described in Price et al., Methods in Enzymology, 135, pp. 308-318 (1990), incorporated. yeast ADH2 promoter and terminator sequences and the Saccharomyces cerevisiae host was the protease-deficient strain BJ2-54 deposited on Aug. 31, 1998 with the American Type Culture Collection, Manassas, Va., under accession number ATCC 74465. Transformed host cells were grown in 2×SC-leu medium, pH 6.2, with trace metals, and vitamins. After 24 hours, YEP medium-containing glycerol was added to a final concentration of 2×YET/3% glycerol. Approximately 24 hr later, cells were harvested, washed, and stored at −70° C.
Phosphodiesterase activity of the preparations was determined as follows. PDE assays utilizing a charcoal separation technique were performed essentially as described in Loughney et al. (1996). In this assay, PDE activity converts [32P]cAMP or [32P]cGMP to the corresponding [32P]5′-AMP or [32P]5′-GMP in proportion to the amount of PDE activity present. The [32P]5′-AMP or [32P]5′-GMP then was quantitatively converted to free [32P]phosphate and unlabeled adenosine or guanosine by the action of snake venom 5′-nucleotidase. […] The assay was performed at 30° C. in a 100 μL reaction mixture containing (final concentrations) 40 mM Tris HCl (pH 8.0), 1 μM ZnSO4, 5 mM MgCl2, and 0.1 mg/mL bovine serum albumin (BSA) Alternatively, in assays assessing PDE1-specific activity, incubation mixtures further incorporated the use of 0.1 mM CaChe and 10 μg/mL calmodulin. PDE enzyme was present in quantities that yield<30% total hydrolysis of substrate (linear assay conditions). The assay was initiated by addition of substrate ([…] [32P]cAMP or cGMP), and the mixture was incubated for 12 minutes. […] After centrifugation (750×g for 3 minutes) to sediment the charcoal, a sample of the supernatant was taken for radioactivity determination in a scintillation counter and the PDE activity was calculated.

[2] = in vivo; cited from earlier work
[3] = tested on: recombinant human PDE4; conditions: reported value, background section; read-out: IC50 with respect to inhibiting recombinant human PDE4; cited from earlier work

| Molecule | IC50 [1] [µM] | also measured |
| --- | --- | --- |
| R-rolipram |  | Emetic potential relative to the (+)-enantiomer (S-rolipram) [2]: about ten-fold more emetic |
| CCc1nn(C2CCCC2)c2cc([C@@H]3CN(C(=O)OC)C[C@@]3(C)CO)ccc12 [Example 4, Methyl (3S,4S)-4-(1-cyclopentyl-3-ethyl(1H-indazol-6-yl))-3-(hydroxymethyl)-3-methyl Pyrrolidine Carboxylate] | 0.0793 |  |
| COc1ccc(C2CNC(=O)C2)cc1OC1CCCC1 (stereo not shown) [Rolipram, rolipram] |  | IC50 [3]: ~0.2 µM |
| COC(=O)N1CC(c2ccc(OC)c(OC3CCCC3)c2)C(C)(C(C)=O)C1 (stereo not shown) [formula (I)] |  | IC50 [3]: ~0.002 µM |

Now from value to molecule, other results behind:

| IC50 [1] [µM] | Molecule | also measured |
| --- | --- | --- |
| 0.0876 | CCc1nn(C2CCCC2)c2cc([C@@H]3CN(Cc4ccccc4)C[C@@]3(C)C(C)O)ccc12 (stereo partly drawn) [Example 2, (1R)-1-[(3S,4S)-4-(1-Cyclopentyl-3-ethyl(1H-indazol-6-yl))-3-methyl-1-benzylpyrrolidin-3-yl]ethan-1-ol] |  |
| 0.0061 | CCc1nn(C2CCCC2)c2cc([C@@H]3CN(Cc4ccccc4)C[C@@]3(C)CO)ccc12 [Example 3, [(3S,4S)-4-(1-Cyclopentyl-3-ethyl(1H-indazol-6-yl))-3-methyl-1-benzylpyrrolidin-3-yl]methan-1-ol] |  |
| 0.316 | CCc1nn(C2CCCC2)c2cc([C@@H]3CN(Cc4ccccc4)C[C@@]3(C)C(C)O)ccc12 (stereo partly drawn) [Example 1, (1S)-1-[(3S,4S)-4-(1-Cyclopentyl-3-ethyl(1H-indazol-6-yl))-3-methyl-1-benzylpyrrolidin-3-yl]ethan-1-ol] |  |

Source: patent US6444671B1, “Cyclic AMP-specific phosphodiesterase inhibitors” (ICOS Corporation, priority 1999, dated 2002)
